In patent US20250186391A1, “ORAL COMPLEMENT FACTOR D INHIBITORS” (BioCryst Pharmaceuticals, Inc., priority 2019, published 2025) one finds IC50 data, which are given here for 29 compounds.

SMILES strings stand for the structures.

Factor D, sequence (P00746 26-253): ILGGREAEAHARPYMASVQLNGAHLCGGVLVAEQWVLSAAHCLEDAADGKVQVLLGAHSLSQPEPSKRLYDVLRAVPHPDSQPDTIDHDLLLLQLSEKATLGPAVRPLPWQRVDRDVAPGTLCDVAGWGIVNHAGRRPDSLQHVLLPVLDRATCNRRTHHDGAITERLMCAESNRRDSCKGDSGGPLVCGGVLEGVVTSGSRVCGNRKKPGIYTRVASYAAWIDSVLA

This assay concerns the target Factor D (Homo sapiens (Human), UniProt P00746). Put plainly: Factor D esterolytic assay. Conditions: Z-Lys-SBzl substrate, 100 mM HEPES, 500 mM NaCl, pH 7.5, 10% DMSO; tested a minimum of three times; read-out: Measured Ki (IC50) Value for Compounds: IC50. Type of assay: biochemical. As for the experimental part:
The IC50 value of a compound (i.e., the concentration of the compound that inhibits 50% of the enzymatic activity) was calculated according to the procedure reported in U.S. Pat. No. 6,653,340 B1, e.g., column 74 (incorporated by reference).
Specifically, the compounds were dissolved in a stock solution of DMSO at 10.0 or 100 mM. A portion of this stock solution was added to assay buffer in a final volume of 50 μL. Controls included buffer alone and enzyme solutions to which DMSO was added. Substrate was added to the reaction wells immediately or after incubation at room temperature. The reaction rates were measured spectrophotometrically by the generation of product at 405 nm for 600 sec. Background absorbance at 690 nm was measured and subtracted from the absorbance at 405 nm for each well.
The reaction rate for enzyme alone was compared to the rate of enzyme in the presence of inhibitor and the percent inhibition was calculated as shown below: […]
An established esterolytic assay for the measurement of Factor D activity and inhibition of Factor D activity was used (Kam, C. M.; McRae, B. J.; Harper, J. W.; Niemann, M. A.; Volanakis, J. E.; Powers, J. C. Human complement proteins D, C2, and B Active site mapping with peptide thioester substrates. J Biol. Chem. 1987, 262, 3444-3451). For this assay Z-Lys-SBzl, 1.29 mM (Kim, S.; Narayana, S. V. L; Volanakis, J. E. Mutational analysis of the substrate binding site of human complement Factor D. Biochemistry. 1994, 33, 14393-14399.) was used as the substrate for Factor D ([…]). Hydrolysis of this compound by Factor D liberated a free sulfhydryl group which is then reacted with 5,5′-dithiobis(2nitrobenzoic acid) producing an intense yellow color (Habeeb, A. F. S. A. Reaction of protein sulfhydryl groups with Ellman's Reagent. Methods in Enzymol. 1976, 25, 457-464.). The assays were performed in 96 well microtiter plates and rates of hydrolysis were monitored at 405 nm on a Biotek Synergy H1 plate reader. Hydrolysis rates were reported as change in mOD/min. The assay was conducted in 100 mM HEPES, 500 mM NaCl, pH 7.5 containing 10% DMSO in a final volume of 50 μL per well.
An IC50, a compound concentration which inhibits 50% of the enzymatic activity, was calculated. Compounds in the examples were tested a minimum of three times.
For orientation: IC50 means the midpoint of a concentration-inhibition curve. For the compound `NCc1cccc(-c2cc(OCc3ccccn3)c3occ(COc4ccccc4CC(=O)O)c3c2)c1` [Compound 195f, 2-(2-((5-(3-(aminomethyl)phenyl)-7-(pyridin-2-ylmethoxy)benzofuran-3-yl)methoxy)phenyl)acetic acid], the 50% inhibitory concentration (IC50) is less than 1000 nM. On to `COc1cc(-c2cccc(CN)c2)cc2c(COc3cc(C(F)(F)F)ccc3CC(=O)O)coc12` [Compound 269c, 2-(2-((5-(3-(aminomethyl)phenyl)-7-methoxybenzofuran-3-yl)methoxy)-4-(trifluoromethyl)phenyl)acetic acid], for which the IC50 was less than 1000 nM.

Consider `COc1ccc(CC(=O)O)c(OCc2coc3c(C)cc(-c4cccc(CN)c4)cc23)c1` [Compound 253c, 2-(2-((5-(3-(aminomethyl)phenyl)-7-methylbenzofuran-3-yl)methoxy)-4-methoxyphenyl)acetic acid], for which the half-maximal inhibitory concentration (IC50) was less than 1000 nM.

Turning to `NCc1cccc(-c2ccc3occ(COc4cc(N)ccc4CC(=O)O)c3c2)c1` [Compound 84b, 2-(4-amino-2-((5-(3-(aminomethyl)phenyl)benzofuran-3-yl)methoxy)phenyl)acetic acid], the IC50 is less than 1000 nM. Consider `NCc1cccc(-c2cc(OCCN3CCOCC3)c3occ(COc4ccccc4CC(=O)O)c3c2)c1` [Compound 250f, 2-(2-((5-(3-(aminomethyl)phenyl)-7-(2-morpholinoethoxy)benzofuran-3-yl)methoxy)phenyl)acetic acid], for which the concentration for half-maximal inhibition (IC50) is less than 1000 nM. Take `NCc1cccc(-c2ccc3occ(Cc4ccccc4CC(=O)O)c3c2)c1` [Compound 73f, 2-(2-((5-(3-(aminomethyl)phenyl)benzofuran-3-yl)methyl)phenyl)acetic acid]: the IC50 is 1000 to 10000 nM. For `COc1ccc(CC(=O)O)c(OCc2coc3c(NC(C)C)cc(-c4cccc(CN)c4)cc23)c1` [Compound 278c, 2-(2-((5-(3-(aminomethyl)phenyl)-7-(isopropylamino)benzofuran-3-yl)methoxy)-4-methoxyphenyl)acetic acid] the value was less than 1000 nM; for `NCc1nccc(-c2cc3c(COc4ccccc4CC(=O)O)coc3c3ccoc23)c1F` [Compound 289d, 2-(2-((5-(2-(aminomethyl)-3-fluoropyridin-4-yl)benzo[1,2-b:3,4-b′]difuran-3-yl)methoxy)phenyl)acetic acid], less than 1000 nM; for `Cn1cncc1COc1cc(-c2cccc(CN)c2)cc2c(COc3ccccc3CC(=O)O)coc12` [Compound 199f, 2-(2-((5-(3-(aminomethyl)phenyl)-7-((1-methyl-1H-imidazol-5-yl)methoxy)benzofuran-3-yl)methoxy)phenyl)acetic acid], less than 1000 nM. Consider `NCc1cccc(-c2cc(-c3ccccc3N)c3occ(COc4ccccc4CC(=O)O)c3c2)c1` [Compound 222c, 2-(2-((5-(3-(aminomethyl)phenyl)-7-(2-aminophenyl)benzofuran-3-yl)methoxy)phenyl)acetic acid], for which the concentration for half-maximal inhibition (IC50) is less than 1000 nM. For the compound `NCc1cccc(-c2cc3c(COc4ccccc4CC(=O)O)ccc(C4CC4)c3o2)c1` [Compound 291g, 2-(2-((2-(3-(aminomethyl)phenyl)-7-cyclopropylbenzofuran-4-yl)methoxy)phenyl)acetic acid], the half-maximal inhibitory concentration (IC50) was 1000 to 10000 nM.

Turning to `NCc1cccc(-c2ccc3c(c2)c(COc2ccccc2CC(=O)O)nn3C2CCC2)c1` [Compound 298d, 2-(2-((5-(3-(aminomethyl)phenyl)-1-cyclobutyl-1H-indazol-3-yl)methoxy)phenyl)acetic acid], the half-inhibitory concentration (IC50) was less than 1000 nM. With `NCc1cccc(-c2cc(COc3ccccc3)cc3cc(COc4ccccc4CC(=O)O)oc23)c1` [Compound 33f, 2-(2-((7-(3-(aminomethyl)phenyl)-5-(phenoxymethyl)benzofuran-2-yl)methoxy)phenyl)acetic acid], the half-inhibitory concentration (IC50) is less than 1000 nM.

Turning to `Cn1nc(COc2ccccc2CC(=O)O)c2cc(-c3cccc(CN)c3)ccc21` [Compound 117d, 2-(2-((5-(3-(aminomethyl)phenyl)-1-methyl-1H-indazol-3-yl)methoxy)phenyl)acetic acid], the 50% inhibitory concentration (IC50) was less than 1000 nM. `CCCc1oc2ccc(-c3cccc(CN)c3)cc2c1COc1cc(OC)ccc1CC(=O)O` [Compound 284e, 2-(2-((5-(3-(aminomethyl)phenyl)-2-propylbenzofuran-3-yl)methoxy)-4-methoxyphenyl)acetic acid]: the IC50 is less than 1000 nM. Take `Cc1cccc(-c2cc(-c3cccc(CN)c3)cc3c(COc4ccccc4CC(=O)O)coc23)c1` [Compound 197c, 2-(2-((5-(3-(aminomethyl)phenyl)-7-(m-tolyl)benzofuran-3-yl)methoxy)phenyl)acetic acid]: the IC50 was less than 1000 nM. For `Cc1ccc(CC(=O)O)c(OCc2nn(C(C)C)c3ccc(-c4cccc(CN)c4)cc23)c1` [Compound 254c, 2-(2-((5-(3-(aminomethyl)phenyl)-1-isopropyl-1H-indazol-3-yl)methoxy)-4-methylphenyl)acetic acid], the IC50 was less than 1000 nM. On to `NCc1cccc(-c2cc(OCC3CC3)c3occ(COc4ccccc4CC(=O)O)c3c2)c1` [Compound 159f, 2-(2-((5-(3-(aminomethyl)phenyl)-7-(cyclopropylmethoxy)benzofuran-3-yl)methoxy)phenyl)acetic acid], for which the 50% inhibitory concentration (IC50) is less than 1000 nM. For `CCc1oc2ccc(-c3cccc(CN)c3)cc2c1COc1ccccc1CC(=O)O` [Compound 226c, 2-(2-((5-(3-(aminomethyl)phenyl)-2-ethylbenzofuran-3-yl)methoxy)phenyl)acetic acid], the half-maximal inhibitory concentration (IC50) was less than 1000 nM. As to `COC[C@H]1CCCN1Cc1cc(-c2cccc(CN)c2)cc2c(COc3ccccc3CC(=O)O)coc12` [Compound 205d, (R)-2-(2-((5-(3-(aminomethyl)phenyl)-7-((2-(methoxymethyl)pyrrolidin-1-yl)methyl)benzofuran-3-yl)methoxy)phenyl)acetic acid], the IC50 is less than 1000 nM. To `Cc1cc(-c2cc(-c3cccc(CN)c3)cc3c(COc4ccccc4CC(=O)O)coc23)cn(C)c1=O` [Compound 224c, 2-(2-((5-(3-(aminomethyl)phenyl)-7-(1,5-dimethyl-6-oxo-1,6-dihydropyridin-3-yl)benzofuran-3-yl)methoxy)phenyl)acetic acid] belongs less than 1000 nM; to `NCc1cccc(-c2ccc3occ(COc4c(CC(=O)O)cccc4C(N)=O)c3c2)c1` [Compound 114i, 2-(2-((5-(3-(aminomethyl)phenyl)benzofuran-3-yl)methoxy)-3-carbamoylphenyl)acetic acid], 1000 to 10000 nM. For the compound `CC(C)n1nc(COc2c(C#N)cccc2CC(=O)O)c2cc(-c3cccc(CN)c3)ccc21` [Compound 305c, 2-(2-((5-(3-(aminomethyl)phenyl)-1-isopropyl-1H-indazol-3-yl)methoxy)-3-cyanophenyl)acetic acid], the half-maximal inhibitory concentration (IC50) was less than 1000 nM. As to `NCc1cccc(-c2cccc3cc(C(=O)Nc4ccccc4CC(=O)O)oc23)c1` [Compound 21b, 2-(2-(7-(3-(aminomethyl)phenyl)benzofuran-2-carboxamido)phenyl)acetic acid], the IC50 was 1000 to 10000 nM. Consider `NCc1cccc(-c2coc3ccc(COc4ccccc4CC(=O)O)cc23)c1` [Compound 38e, 2-(2-((3-(3-(aminomethyl)phenyl)benzofuran-5-yl)methoxy)phenyl)acetic acid], for which the IC50 was less than 1000 nM. For `NCc1cccc(-c2ccc3occ(COc4c(CN)cccc4CC(=O)O)c3c2)c1` [Compound 145c, 2-(3-(aminomethyl)-2-((5-(3-(aminomethyl)phenyl)benzofuran-3-yl)methoxy)phenyl)acetic acid], the half-maximal inhibitory concentration (IC50) was less than 1000 nM. As to `Cc1ccc(OCc2coc3ccc(-c4cccc(CN)c4)cc23)c(CC(=O)O)c1` [Compound 105d, 2-(2-((5-(3-(aminomethyl)phenyl)benzofuran-3-yl)methoxy)-5-methylphenyl)acetic acid], the IC50 was less than 1000 nM. On to `CCc1oc2ccc(-c3cccc(CN)c3)cc2c1COc1cc(OC)ccc1CC(=O)O` [Compound 225e, 2-(2-((5-(3-(aminomethyl)phenyl)-2-ethylbenzofuran-3-yl)methoxy)-4-methoxyphenyl)acetic acid], for which the half-maximal inhibitory concentration (IC50) was less than 1000 nM. As to `COc1c(CN)cccc1-c1cc(OC)c2occ(COc3ccccc3CC(=O)O)c2c1` [Compound 324d, 2-(2-((5-(3-(aminomethyl)-2-methoxyphenyl)-7-methoxybenzofuran-3-yl)methoxy)phenyl)acetic acid], the IC50 was less than 1000 nM.
